Test results reported in ChEMBL document CHEMBL2074549, “Regulation of 2-acetylaminofluorene-and 3-methylcholanthrene--mediated induction of multidrug resistance and cytochrome P450IA gene family expression in primary hepatocyte cultures and rat liver” (Mol Carcinog, 1991).

Columns and labels:
[1] = target: Multidrug resistance protein 1a (Rattus norvegicus) (UniProt Q6PSM0); test: TP_TRANSPORTER: Western blot, primary hepatocytes; type: functional, cell-based; settings: Hepatocyte
[2] = target: ATP-dependent translocase ABCB1 (Rattus norvegicus, UniProt P43245); test: TP_TRANSPORTER: Northern blot from primary hepatocytes; type: functional, Hepatocyte
Sequence of ATP-dependent translocase ABCB1 (P43245 whole entry): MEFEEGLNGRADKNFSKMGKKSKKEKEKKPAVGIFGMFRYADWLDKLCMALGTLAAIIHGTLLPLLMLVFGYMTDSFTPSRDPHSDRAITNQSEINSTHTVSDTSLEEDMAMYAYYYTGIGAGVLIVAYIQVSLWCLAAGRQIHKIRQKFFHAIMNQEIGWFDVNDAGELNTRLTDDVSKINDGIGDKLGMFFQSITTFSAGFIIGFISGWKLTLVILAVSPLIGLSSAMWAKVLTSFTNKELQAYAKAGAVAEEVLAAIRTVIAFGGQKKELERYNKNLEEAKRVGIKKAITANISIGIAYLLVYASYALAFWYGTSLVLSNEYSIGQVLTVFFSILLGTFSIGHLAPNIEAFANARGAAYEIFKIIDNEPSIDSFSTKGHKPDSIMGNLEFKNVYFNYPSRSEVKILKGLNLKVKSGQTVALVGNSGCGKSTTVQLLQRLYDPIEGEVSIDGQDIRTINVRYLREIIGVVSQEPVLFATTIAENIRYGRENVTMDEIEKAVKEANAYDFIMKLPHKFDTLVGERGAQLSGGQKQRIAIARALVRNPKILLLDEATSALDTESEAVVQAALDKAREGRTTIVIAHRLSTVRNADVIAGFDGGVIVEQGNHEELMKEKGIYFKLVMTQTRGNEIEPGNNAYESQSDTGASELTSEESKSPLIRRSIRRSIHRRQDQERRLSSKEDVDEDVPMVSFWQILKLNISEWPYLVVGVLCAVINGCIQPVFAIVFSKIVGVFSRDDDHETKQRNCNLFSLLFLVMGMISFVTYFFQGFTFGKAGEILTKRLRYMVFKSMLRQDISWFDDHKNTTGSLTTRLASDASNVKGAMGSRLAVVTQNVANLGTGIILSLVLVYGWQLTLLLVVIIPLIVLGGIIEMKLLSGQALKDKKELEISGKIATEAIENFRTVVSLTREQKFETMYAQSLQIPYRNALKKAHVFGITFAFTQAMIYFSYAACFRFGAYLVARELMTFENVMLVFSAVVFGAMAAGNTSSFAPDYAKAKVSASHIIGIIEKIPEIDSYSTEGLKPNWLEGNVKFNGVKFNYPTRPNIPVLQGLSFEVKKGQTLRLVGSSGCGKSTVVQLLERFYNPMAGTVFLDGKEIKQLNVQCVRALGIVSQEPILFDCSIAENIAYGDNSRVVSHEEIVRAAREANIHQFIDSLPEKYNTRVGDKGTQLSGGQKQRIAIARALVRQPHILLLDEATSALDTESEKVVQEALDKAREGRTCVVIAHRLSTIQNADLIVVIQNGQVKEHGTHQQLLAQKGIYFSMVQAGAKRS

Sequence of Multidrug resistance protein 1a (Rattus norvegicus) (Q6PSM0 as listed by the source): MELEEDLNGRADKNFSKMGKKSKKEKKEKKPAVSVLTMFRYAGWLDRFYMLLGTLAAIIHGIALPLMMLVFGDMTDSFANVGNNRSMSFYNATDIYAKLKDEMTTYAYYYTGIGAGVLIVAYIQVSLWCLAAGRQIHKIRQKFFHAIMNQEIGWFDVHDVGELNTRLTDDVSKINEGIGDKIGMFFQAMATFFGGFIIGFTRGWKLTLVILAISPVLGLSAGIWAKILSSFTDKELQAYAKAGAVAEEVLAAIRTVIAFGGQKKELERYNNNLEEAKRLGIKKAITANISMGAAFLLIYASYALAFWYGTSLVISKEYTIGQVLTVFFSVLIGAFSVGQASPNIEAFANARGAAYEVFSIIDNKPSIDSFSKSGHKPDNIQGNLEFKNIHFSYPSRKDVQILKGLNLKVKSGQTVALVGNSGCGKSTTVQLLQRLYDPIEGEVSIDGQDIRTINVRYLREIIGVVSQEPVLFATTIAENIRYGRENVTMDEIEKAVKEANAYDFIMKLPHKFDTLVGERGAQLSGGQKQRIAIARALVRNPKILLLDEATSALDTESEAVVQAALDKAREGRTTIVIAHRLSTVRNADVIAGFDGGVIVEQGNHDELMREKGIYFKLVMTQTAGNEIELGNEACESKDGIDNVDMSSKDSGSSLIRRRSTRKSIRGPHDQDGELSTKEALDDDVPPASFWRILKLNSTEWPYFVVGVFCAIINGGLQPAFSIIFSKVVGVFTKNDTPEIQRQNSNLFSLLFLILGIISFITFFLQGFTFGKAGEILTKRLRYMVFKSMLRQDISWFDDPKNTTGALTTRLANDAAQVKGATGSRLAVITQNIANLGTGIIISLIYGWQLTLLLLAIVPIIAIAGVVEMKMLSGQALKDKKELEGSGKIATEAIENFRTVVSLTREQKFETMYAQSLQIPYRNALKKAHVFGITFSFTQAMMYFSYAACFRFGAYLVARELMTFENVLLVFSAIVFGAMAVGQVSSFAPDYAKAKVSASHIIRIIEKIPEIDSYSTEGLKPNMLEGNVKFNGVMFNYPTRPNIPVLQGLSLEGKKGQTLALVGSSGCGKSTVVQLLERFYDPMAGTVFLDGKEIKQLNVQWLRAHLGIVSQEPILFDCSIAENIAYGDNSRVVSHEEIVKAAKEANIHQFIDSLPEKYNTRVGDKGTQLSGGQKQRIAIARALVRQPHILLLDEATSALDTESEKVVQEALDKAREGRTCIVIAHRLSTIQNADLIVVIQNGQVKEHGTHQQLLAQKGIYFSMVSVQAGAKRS

| Compound | Activity [1] | Activity [2] |
| --- | --- | --- |
| CC(=O)Nc1ccc2c(c1)Cc1ccccc1-2 | inducer [+] |  |
| Cc1ccc2cc3c(ccc4ccccc43)c3c2c1CC3 [3-METHYLCHOLANTHRENE] | inducer [+] | inducer [+] |
